Laboratory results as given in ChEMBL document CHEMBL5500407, “Designing Chromane Derivatives as α2A-Adrenoceptor Selective Agonists via Conformation Constraint” (J Med Chem, 2024).
The source made the active and inactive calls. The calls are words filed in the database; no cut-off is given here.

Columns and labels:
[1] = target: T1, Alpha-2A adrenergic receptor (Homo sapiens, UniProt P08913)
T1 sequence (P08913 whole entry): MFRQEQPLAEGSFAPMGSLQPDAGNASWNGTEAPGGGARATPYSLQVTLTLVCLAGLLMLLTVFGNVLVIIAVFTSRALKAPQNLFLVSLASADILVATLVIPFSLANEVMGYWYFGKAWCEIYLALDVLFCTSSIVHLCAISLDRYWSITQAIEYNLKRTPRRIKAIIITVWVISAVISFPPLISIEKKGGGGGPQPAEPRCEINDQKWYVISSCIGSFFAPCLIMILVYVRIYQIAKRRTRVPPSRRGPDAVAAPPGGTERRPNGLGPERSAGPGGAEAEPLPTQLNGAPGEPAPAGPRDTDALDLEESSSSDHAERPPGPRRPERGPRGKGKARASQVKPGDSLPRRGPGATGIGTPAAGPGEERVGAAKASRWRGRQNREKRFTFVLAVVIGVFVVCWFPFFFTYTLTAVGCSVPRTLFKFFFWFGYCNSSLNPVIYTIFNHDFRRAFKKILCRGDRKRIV
Description: Agonist activity at alpha2A-adrenoceptor (unknown origin) expressed in CHO-alpha2-AR-PKAcatEGFP cells assessed as intracellular cAMP concentration by measuring PKA translocation after 15 mins incubation by PKA redistribution assay

[2] = target: T2, Alpha-1B adrenergic receptor (Homo sapiens, UniProt P35368); assay: Binding affinity to human alpha1B-adrenoceptor
T2 sequence (P35368 whole entry): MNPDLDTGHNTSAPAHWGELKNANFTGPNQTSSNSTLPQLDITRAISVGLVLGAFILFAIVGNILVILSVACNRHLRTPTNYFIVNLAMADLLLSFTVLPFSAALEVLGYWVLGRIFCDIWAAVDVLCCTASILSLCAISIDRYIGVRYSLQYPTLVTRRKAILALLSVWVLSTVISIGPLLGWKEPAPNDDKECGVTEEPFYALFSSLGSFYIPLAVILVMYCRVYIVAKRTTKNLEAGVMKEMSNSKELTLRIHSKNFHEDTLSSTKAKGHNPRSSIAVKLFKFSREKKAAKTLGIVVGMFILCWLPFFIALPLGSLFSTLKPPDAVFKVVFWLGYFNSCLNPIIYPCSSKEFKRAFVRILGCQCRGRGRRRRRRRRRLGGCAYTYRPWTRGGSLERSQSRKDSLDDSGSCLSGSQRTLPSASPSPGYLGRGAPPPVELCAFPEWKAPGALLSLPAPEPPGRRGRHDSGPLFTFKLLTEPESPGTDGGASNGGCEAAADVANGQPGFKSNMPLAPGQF

[3] = target: T3, Alpha-1D adrenergic receptor (Homo sapiens, UniProt P25100); assay: Binding affinity to human alpha1D-adrenoceptor
T3 sequence (P25100 whole entry): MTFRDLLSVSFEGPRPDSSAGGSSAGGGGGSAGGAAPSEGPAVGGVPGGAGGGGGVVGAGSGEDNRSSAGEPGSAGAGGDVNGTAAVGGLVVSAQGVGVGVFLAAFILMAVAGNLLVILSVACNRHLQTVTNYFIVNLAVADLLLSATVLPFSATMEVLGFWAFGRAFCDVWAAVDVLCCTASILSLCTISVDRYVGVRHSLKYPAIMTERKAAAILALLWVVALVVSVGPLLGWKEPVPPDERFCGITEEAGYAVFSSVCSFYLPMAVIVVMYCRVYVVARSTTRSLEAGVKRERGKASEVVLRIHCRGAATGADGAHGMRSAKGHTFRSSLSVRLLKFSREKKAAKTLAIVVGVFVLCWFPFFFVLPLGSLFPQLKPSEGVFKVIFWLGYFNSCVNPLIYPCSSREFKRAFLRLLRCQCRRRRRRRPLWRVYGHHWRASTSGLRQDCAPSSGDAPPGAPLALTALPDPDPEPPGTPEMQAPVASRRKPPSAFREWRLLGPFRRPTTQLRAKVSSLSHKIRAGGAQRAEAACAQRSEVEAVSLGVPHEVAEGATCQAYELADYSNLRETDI

[4] = target: T1, Alpha-2A adrenergic receptor; remark: listed apart in the source
Description: Binding affinity to human alpha2A-adrenoceptor

[5] = target: T4, Alpha-2B adrenergic receptor (Homo sapiens, UniProt P18089)
T4 sequence (P18089 whole entry): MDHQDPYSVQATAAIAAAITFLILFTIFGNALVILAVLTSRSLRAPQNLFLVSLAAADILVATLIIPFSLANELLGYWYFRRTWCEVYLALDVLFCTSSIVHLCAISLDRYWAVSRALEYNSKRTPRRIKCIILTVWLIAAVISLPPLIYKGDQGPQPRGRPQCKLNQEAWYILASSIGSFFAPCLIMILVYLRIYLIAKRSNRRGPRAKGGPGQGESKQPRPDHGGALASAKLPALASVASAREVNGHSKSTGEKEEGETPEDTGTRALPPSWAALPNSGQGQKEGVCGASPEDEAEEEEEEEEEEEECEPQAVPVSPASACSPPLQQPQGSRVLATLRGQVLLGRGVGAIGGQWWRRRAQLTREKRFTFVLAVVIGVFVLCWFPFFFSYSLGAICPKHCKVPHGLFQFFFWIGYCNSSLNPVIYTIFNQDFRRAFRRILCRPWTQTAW
Description: Binding affinity to human alpha2B-adrenoceptor

[6] = target: T5, Alpha-2C adrenergic receptor (Homo sapiens, UniProt P18825)
T5 sequence (P18825 whole entry): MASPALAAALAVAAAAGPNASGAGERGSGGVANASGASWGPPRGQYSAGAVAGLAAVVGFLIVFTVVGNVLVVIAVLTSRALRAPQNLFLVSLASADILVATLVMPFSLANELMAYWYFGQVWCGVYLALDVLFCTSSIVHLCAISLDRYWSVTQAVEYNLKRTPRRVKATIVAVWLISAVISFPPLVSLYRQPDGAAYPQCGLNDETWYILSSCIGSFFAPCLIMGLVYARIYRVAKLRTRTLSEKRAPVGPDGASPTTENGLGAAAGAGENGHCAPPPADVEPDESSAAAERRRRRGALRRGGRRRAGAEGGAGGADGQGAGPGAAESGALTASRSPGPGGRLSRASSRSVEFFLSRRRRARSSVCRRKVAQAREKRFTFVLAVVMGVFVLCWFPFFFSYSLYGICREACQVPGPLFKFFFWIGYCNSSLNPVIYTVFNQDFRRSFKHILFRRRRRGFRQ
Description: Binding affinity to human alpha2C-adrenoceptor

[7] = target: T6, Alpha-1A adrenergic receptor (Homo sapiens, UniProt P35348)
T6 sequence (P35348 whole entry): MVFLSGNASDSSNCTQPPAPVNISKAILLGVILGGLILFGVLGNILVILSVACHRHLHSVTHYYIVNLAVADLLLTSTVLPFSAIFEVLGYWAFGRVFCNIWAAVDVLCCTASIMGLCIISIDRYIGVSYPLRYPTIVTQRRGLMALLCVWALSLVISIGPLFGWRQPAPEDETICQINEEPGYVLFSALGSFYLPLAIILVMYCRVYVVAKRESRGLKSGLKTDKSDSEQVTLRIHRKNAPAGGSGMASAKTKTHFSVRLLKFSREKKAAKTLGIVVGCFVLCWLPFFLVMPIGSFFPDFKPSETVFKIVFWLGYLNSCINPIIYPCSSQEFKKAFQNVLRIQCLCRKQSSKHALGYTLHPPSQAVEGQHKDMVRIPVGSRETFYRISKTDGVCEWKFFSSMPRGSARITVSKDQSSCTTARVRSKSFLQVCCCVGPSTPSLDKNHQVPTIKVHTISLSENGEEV
Description: Binding affinity to human alpha1A-adrenoceptor

Mus musculus [8] = assay: Hypnotic activity in ip dosed C57BL/6 mouse assessed as increase in loss of righting reflex (LORR)
Mus musculus [9] = assay: Hypnotic activity in ip dosed C57BL/6 mouse assessed as increase in immobility time; format: functional, organism-based
HEK293T = assay: Agonist activity at alpha2A-adrenoceptor F427A mutant (unknown origin) expressed in HEK293T cells co-expressing pGloSensor-22F cAMP plasmid assessed as at 1 to 100 uM measured after 10 mins incubation by multiplate reader; format: cell-based; conditions: Homo sapiens, dose 1-100 µM
[10] = target: T4, Alpha-2B adrenergic receptor; assay: Agonist activity at alpha2B-adrenoceptor (unknown origin) expressed in U2OS-EGFP-NFAT2-alpha2B-AR cells assessed as increase in intracellular calcium level measured after 15 mins incubation by Micro automated microscopy; format: functional, cell-based
[11] = target: T5, Alpha-2C adrenergic receptor; assay: Agonist activity at alpha2C-adrenoceptor (unknown origin) expressed in CHO-alpha2C-PKAcatEGFP cells assessed as increase in intracellular calcium level measured after 15 mins incubation by Micro automated microscopy; format: functional, cell-based
[12] = target: T6, Alpha-1A adrenergic receptor; assay: Agonist activity at alpha1A-adrenoceptor (unknown origin) expressed in HEK293T cells assessed as fluorescence intensity measured after 30 mins by IP-one homogeneous time-resolved fluorescence assay; format: functional, cell-based
[13] = Selectivity index, ratio of EC50 for alpha2A-adrenoceptor (unknown origin) to EC50 for alpha2B-adrenoceptor (unknown origin)
[14] = Selectivity index, ratio of EC50 for alpha2A-adrenoceptor (unknown origin) to EC50 for alpha2C-adrenoceptor (unknown origin)
[15] = Selectivity index, ratio of EC50 for alpha2A-adrenoceptor (unknown origin) to EC50 for alpha1A-adrenoceptor (unknown origin)
[16] = Metabolic stability in mouse liver microsomes assessed as elimination half life; format: ADME, Microsome
[17] = Metabolic stability in mouse liver microsomes assessed as intrinsic clearance; format: ADME, Microsome; conditions: read-out: CLH

For Fc1cccc2c1OCCC2c1c[nH]cn1 (stereo not given), the EC50 [1] was 56.9 nM.
Work on Clc1cc(Cl)c2c(c1)C(c1c[nH]cn1)=CCO2 yielded an EC50 [1] of 4630 nM.
COc1cccc2c1CCOC2C1=NCCN1 (stereo not given) [TASIPIMIDINE] gave a Ki [2] of 525 nM, a Ki [3] of 3090 nM and a Ki [4] of 8.71 nM. The Ki [5] was greater than 1000 nM, the Ki [6] was greater than 1000 nM and the Ki [7] was 3090 nM.
C[C@H](c1c[nH]cn1)c1cccc2ccccc12 showed a Ki [4] of 15.5 nM, a Ki [5] of 35.5 nM and a Ki [6] of 17.8 nM. The Ki [7] was 447 nM.
For Cc1cccc([C@H](C)c2c[nH]cn2)c1C [DEXMEDETOMIDINE], the ED50 (Mus musculus [8]) was 0.11 mg/kg, the Activity (Mus musculus [9]) was “Dose-Dependent Effect” and the Activity (HEK293T) was “inactive”.
For Brc1ccc2c(c1)OCC=C2c1c[nH]cn1, the EC50 [1] was greater than 5000 nM.
Work on Fc1ccc2c(c1)OCCC2c1cnc[nH]1 (stereo not given) yielded an EC50 [1] of 80.9 nM.
Work on Clc1cccc2c1OCC=C2c1cnc[nH]1 yielded an EC50 [1] of 12.8 nM.
Work on Fc1cc(Br)c2c(c1)C(c1c[nH]cn1)=CCO2 yielded an EC50 [10] of 83.4 nM, an EC50 [11] of 27.9 nM and an EC50 [12] of 48.4 nM. The Selectivity Index [13] was 73, the Selectivity Index [14] was 24 and the Selectivity Index [15] was 42. For the same molecule, the EC50 [1] was 1.14 nM.
Molecule Cc1cccc2c1OCC=C2c1c[nH]cn1 has an EC50 [10] of 100 nM, an EC50 [11] of 49.6 nM and an EC50 [12] of 29.8 nM. For the same molecule, the Selectivity Index [13] was 47, the Selectivity Index [14] was 24 and the Selectivity Index [15] was 14. For the same molecule, the half-life [16] was 4.87 min, the microsomal CLint [17] was 284 µL/min/mg and the EC50 [1] was 2.11 nM.
Fc1ccc2c(c1)OCC=C2c1cnc[nH]1 gave an EC50 [1] greater than 5000 nM.
Molecule N=C(N)NC(=O)Cc1c(Cl)cccc1Cl [GUANFACINE] has a Ki [2] of 135000 nM, a Ki [3] of 11700 nM and a Ki [7] of 4680 nM.
Work on Clc1ccc2c(c1)C(c1c[nH]cn1)CCO2 (stereo not given) yielded an EC50 [1] of 64.6 nM.
Work on NC1=N[C@]2(CCc3cccc(Cl)c3C2)OC1 yielded a Ki [2] of 20 nM, a Ki [3] of 25.1 nM and a Ki [4] of 0.316 nM. For the same molecule, the Ki [5] was 0.251 nM, the Ki [6] was 0.316 nM and the Ki [7] was 3.98 nM.
For C1=C(c2ccc3c(c2)CC3)CNCC1, the Ki [5] was 60.3 nM.
Molecule Cc1cccc2c1OCCC2c1c[nH]cn1 (stereo not given) has an EC50 [10] of 45.8 nM, an EC50 [11] greater than 5000 nM and an EC50 [12] of 2.42 nM. The Selectivity Index [13] was 22, the Selectivity Index [14] was greater than 2000 and the Selectivity Index [15] was 1.2. For the same molecule, the half-life [16] was 36.8 min, the microsomal CLint [17] was 37.7 µL/min/mg and the EC50 [1] was 2.09 nM.
